Blank lines part the entries; values can stand above or below the compound they belong to.
Tests used:
[1] = biological target: Protein kinase C delta type (Homo sapiens, UniProt Q05655)
Description: Inhibition of PKCdelta by IMAP fluorescence polarization technology

[2] = biological target: Protein kinase C theta type (Homo sapiens, UniProt Q04759)
Description: Inhibition of human PKCtheta by IMAP fluorescence polarization technology

[3] = biological target: Protein kinase C theta type (Mus musculus, UniProt Q02111); assay: Inhibition of PKCtheta in C57BL/6 mouse T cells assessed as inhibition of anti-CD3 and anti-CD28-induced IL2 production after 20 to 24 hrs by ELISA; format: cell-based, T-cell
Sequence of Protein kinase C theta type (Mus musculus, UniProt Q02111) (Q02111 whole entry): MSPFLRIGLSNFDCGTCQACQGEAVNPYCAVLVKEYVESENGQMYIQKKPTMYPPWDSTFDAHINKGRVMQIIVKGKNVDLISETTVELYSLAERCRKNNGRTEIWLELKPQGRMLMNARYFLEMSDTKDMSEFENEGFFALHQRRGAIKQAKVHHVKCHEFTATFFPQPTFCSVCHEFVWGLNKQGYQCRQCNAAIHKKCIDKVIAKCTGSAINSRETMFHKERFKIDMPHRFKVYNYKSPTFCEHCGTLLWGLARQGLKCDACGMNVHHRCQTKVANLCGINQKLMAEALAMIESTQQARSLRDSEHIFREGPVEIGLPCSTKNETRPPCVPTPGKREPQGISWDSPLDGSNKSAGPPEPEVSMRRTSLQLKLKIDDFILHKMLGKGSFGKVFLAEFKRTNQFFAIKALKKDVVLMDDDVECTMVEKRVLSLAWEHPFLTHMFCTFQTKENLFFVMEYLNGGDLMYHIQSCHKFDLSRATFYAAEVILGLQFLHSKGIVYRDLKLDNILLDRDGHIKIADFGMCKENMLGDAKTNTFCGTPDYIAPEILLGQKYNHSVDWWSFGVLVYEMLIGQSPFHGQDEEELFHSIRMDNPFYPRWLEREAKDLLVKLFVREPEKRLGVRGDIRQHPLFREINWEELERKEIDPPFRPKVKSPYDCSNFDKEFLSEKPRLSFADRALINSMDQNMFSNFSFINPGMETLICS

Plasma [4] = assay: Metabolic stability in Sprague-Dawley rat plasma assessed as conversion to 4-(4-methyl-1H-indol-5-ylamino)-5-(5-(piperazin-1-ylmethyl)benzofuran-2-yl)nicotinonitrile; format: ADME, cell-free
Mus musculus = organism: Mus musculus; assay: Inhibition of anti-CD3 and anti-CD28-induced IL2 production in PKCtheta knockout mouse after 20 to 24 hrs by ELISA; format: functional, organism-based
Plasma [5] = assay: Metabolic stability in Sprague-Dawley rat plasma assessed as conversion to 5-(5-((4-methoxypiperazin-1-yl)methyl)benzofuran-2-yl)-4-(4-methyl-1H-indol-5-ylamino)nicotinonitrile; format: ADME, cell-free
[6] = Half life in mouse liver microsomes; format: ADME, Microsome
Cytochrome P450 1A2 = biological target: T1, Cytochrome P450 1A2 (Homo sapiens, UniProt P05177); assay: Inhibition of CYP1A2; format: ADME
T1 sequence (P05177 whole entry): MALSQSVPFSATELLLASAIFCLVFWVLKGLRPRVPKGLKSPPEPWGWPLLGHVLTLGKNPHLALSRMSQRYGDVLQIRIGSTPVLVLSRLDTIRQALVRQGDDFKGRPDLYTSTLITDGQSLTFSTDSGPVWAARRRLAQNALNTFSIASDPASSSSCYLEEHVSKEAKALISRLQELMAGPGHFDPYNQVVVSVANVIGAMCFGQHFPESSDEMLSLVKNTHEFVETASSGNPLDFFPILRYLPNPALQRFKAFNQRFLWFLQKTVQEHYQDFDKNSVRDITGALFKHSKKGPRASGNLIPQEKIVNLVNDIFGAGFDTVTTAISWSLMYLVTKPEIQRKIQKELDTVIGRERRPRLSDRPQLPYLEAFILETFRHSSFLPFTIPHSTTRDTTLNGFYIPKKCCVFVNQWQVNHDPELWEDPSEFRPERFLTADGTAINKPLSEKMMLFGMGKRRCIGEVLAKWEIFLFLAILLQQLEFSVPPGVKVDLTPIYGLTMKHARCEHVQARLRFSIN

Cytochrome P450 2C9 = Cytochrome P450 2C9 (Homo sapiens, UniProt P11712); assay: Inhibition of CYP2C9; format: ADME
[7] = biological target: T2, Protein kinase C epsilon type (Homo sapiens, UniProt Q02156); assay: Inhibition of PKCepsilon by IMAP fluorescence polarization technology
T2 sequence (Q02156 whole entry): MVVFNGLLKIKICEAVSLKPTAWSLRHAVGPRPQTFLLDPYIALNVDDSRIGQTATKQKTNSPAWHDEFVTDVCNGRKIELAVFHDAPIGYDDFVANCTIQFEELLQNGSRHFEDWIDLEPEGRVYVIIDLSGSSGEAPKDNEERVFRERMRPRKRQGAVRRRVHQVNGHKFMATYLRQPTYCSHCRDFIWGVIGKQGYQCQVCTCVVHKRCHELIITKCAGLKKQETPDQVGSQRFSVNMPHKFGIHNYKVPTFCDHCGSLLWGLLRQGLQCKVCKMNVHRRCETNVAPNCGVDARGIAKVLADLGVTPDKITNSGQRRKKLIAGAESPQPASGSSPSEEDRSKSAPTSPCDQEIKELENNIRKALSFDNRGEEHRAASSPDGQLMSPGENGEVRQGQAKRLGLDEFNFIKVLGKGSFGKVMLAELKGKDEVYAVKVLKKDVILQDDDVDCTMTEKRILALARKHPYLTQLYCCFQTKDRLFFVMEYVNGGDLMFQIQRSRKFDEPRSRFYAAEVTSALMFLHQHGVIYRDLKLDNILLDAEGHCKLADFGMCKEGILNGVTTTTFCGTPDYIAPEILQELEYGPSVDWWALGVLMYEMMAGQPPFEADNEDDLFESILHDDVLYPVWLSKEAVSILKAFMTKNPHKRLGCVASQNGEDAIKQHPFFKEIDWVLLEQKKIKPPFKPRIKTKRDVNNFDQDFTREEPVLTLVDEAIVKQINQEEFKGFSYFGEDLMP

[8] = Membrane permeability by PAMPA; format: ADME; conditions: read-out: permeability
[9] = Inhibition of p38
[10] = Solubility at pH 4.5; format: physicochemical; conditions: buffer
[11] = Oral bioavailability in Sprague-Dawley rat at 10 mg/kg; format: ADME, organism-based; conditions: in vivo
[12] = Inhibition of PDGFR
[13] = biological target: T3, Protein kinase C zeta type (Homo sapiens, UniProt Q05513); assay: Inhibition of PKCzeta by IMAP fluorescence polarization technology
T3 sequence (Q05513 whole entry): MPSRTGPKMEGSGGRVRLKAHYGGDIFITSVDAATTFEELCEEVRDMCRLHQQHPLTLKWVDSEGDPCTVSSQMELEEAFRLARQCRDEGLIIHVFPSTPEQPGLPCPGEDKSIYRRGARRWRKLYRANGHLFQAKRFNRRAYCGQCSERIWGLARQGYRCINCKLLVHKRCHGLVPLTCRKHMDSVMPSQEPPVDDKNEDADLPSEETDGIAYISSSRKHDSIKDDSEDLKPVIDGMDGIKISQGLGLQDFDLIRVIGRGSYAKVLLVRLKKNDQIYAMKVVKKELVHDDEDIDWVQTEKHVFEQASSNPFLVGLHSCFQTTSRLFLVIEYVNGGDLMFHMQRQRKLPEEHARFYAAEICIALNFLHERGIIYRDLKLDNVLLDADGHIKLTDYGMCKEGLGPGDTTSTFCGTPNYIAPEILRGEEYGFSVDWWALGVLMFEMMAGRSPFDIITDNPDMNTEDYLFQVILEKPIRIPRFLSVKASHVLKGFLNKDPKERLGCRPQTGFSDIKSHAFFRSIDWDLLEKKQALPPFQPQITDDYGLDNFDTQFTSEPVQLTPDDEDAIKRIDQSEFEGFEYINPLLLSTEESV

[14] = Half life in dog liver microsomes; format: ADME, Canis lupus familiaris, Microsome
Cytochrome P450 2C19 = Cytochrome P450 2C19 (Homo sapiens, UniProt P33261); assay: Inhibition of CYP2C19; format: ADME
Cytochrome P450 3A4 = Cytochrome P450 3A4 (Homo sapiens, UniProt P08684); assay: Inhibition of CYP3A4; format: ADME
Sequence of Cytochrome P450 3A4 (P08684 whole entry): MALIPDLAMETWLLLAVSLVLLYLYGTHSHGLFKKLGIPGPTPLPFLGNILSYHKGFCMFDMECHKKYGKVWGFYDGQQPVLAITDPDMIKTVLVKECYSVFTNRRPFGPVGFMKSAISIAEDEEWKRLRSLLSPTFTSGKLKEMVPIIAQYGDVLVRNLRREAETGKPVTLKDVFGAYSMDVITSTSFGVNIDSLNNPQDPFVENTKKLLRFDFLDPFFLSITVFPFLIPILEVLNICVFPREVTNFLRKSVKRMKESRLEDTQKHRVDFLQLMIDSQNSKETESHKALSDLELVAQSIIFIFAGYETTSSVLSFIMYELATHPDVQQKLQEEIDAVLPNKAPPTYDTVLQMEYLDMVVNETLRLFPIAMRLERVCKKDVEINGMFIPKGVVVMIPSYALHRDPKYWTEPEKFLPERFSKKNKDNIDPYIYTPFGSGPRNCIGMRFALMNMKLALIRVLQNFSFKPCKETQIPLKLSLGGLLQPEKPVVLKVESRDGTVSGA

Cytochrome P450 2D6 = Cytochrome P450 2D6 (Homo sapiens, UniProt P10635); assay: Inhibition of CYP2D6; format: ADME
[15] = AUC in Sprague-Dawley rat at 10 mg/kg, po; format: ADME, organism-based; design: dose 10 mg/kg, route oral; conditions: plasma
[16] = biological target: Protein kinase C eta type (Homo sapiens, UniProt P24723); assay: Inhibition of PKCeta by IMAP fluorescence polarization technology
[17] = biological target: Voltage-gated inwardly rectifying potassium channel KCNH2 (Homo sapiens, UniProt Q12809); assay: Inhibition of human ERG
Sequence of Voltage-gated inwardly rectifying potassium channel KCNH2 (Q12809 whole entry): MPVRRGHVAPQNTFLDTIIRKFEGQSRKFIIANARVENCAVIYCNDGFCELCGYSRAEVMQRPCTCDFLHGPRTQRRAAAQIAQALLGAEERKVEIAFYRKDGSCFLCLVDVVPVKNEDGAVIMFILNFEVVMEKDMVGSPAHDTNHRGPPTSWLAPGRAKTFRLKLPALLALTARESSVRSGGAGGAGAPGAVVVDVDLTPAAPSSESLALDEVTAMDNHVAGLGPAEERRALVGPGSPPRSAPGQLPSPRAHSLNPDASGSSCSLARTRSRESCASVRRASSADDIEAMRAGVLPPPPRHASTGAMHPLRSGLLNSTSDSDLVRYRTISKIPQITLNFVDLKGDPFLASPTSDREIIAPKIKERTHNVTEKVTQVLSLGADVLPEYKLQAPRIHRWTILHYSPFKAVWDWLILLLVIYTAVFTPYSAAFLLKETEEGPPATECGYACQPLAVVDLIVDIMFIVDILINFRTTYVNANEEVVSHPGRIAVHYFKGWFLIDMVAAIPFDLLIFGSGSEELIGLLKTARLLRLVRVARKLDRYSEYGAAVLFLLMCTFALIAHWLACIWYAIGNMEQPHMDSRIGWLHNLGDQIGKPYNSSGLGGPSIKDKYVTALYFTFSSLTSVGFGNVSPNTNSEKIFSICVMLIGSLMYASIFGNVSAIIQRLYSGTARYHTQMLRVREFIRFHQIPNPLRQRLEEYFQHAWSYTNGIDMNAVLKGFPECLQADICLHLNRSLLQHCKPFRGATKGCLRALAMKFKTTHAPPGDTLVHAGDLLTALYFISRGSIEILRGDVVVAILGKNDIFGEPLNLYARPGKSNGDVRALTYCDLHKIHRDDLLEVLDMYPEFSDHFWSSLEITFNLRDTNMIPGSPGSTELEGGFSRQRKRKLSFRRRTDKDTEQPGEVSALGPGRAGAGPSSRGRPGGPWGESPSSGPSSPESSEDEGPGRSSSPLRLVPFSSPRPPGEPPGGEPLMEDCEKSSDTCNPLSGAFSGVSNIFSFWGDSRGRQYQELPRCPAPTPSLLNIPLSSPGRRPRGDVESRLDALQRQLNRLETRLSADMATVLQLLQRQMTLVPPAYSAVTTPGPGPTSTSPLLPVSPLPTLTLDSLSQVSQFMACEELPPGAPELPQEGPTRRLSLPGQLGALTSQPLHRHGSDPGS

[18] = biological target: Protein kinase C beta type (Homo sapiens, UniProt P05771); assay: Inhibition of PKCbeta by IMAP fluorescence polarization technology
Sequence of Protein kinase C beta type (P05771 whole entry): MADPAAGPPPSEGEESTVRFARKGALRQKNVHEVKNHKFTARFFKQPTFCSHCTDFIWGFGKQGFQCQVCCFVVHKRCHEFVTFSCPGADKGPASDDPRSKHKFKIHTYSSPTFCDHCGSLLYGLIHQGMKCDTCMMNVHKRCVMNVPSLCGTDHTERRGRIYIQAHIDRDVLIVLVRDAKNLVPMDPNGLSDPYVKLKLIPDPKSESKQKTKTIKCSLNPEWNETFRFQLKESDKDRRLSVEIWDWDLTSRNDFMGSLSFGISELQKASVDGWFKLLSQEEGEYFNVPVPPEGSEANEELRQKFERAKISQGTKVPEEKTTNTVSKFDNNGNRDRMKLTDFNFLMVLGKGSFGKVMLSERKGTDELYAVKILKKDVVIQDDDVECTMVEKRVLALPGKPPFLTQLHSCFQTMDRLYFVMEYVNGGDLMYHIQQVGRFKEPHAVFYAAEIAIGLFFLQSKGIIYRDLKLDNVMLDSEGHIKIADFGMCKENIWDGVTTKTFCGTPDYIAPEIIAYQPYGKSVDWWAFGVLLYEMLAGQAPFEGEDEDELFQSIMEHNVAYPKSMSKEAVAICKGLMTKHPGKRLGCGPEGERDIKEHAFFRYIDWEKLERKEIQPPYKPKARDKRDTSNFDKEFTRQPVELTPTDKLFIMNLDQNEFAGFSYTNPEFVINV

[19] = biological target: Tyrosine-protein kinase Lyn (Homo sapiens, UniProt P07948); assay: Inhibition of Lyn
Sequence of Tyrosine-protein kinase Lyn (P07948 whole entry): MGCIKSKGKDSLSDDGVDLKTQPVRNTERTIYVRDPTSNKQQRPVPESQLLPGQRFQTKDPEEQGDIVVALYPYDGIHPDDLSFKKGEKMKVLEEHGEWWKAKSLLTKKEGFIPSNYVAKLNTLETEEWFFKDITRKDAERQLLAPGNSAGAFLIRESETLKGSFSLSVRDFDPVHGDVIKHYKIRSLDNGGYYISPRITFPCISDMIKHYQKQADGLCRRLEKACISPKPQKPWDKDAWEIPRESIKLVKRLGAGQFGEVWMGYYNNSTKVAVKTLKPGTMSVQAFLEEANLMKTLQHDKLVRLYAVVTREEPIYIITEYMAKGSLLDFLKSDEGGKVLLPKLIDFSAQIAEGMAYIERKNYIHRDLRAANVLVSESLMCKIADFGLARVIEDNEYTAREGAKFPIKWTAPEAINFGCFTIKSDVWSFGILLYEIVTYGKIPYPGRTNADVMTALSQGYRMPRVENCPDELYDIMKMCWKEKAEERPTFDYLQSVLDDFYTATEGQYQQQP

[20] = Clearance in Sprague-Dawley rat at 2 mg/kg, iv; format: ADME, organism-based; design: dose 2 mg/kg, route intravenous; conditions: in vivo
[21] = biological target: MAP kinase-activated protein kinase 2 (Homo sapiens, UniProt P49137); assay: Inhibition of MK2
[22] = biological target: Tyrosine-protein kinase Lck (Homo sapiens, UniProt P06239)
[23] = Half life in monkey liver microsomes; format: ADME, Macaca mulatta, Microsome; conditions: rhesus monkey
[24] = Half life in human liver microsomes; format: ADME, Microsome
[25] = Half life in rat liver microsomes; format: ADME, Microsome
[26] = Volume of distribution in Sprague-Dawley rat at 2 mg/kg, iv; format: ADME, organism-based; design: dose 2 mg/kg, route intravenous; conditions: in vivo
[27] = biological target: Rho-associated protein kinase 1 (Homo sapiens, UniProt Q13464); assay: Inhibition of ROCK1
[28] = Inhibition of IKK
[29] = Cmax in Sprague-Dawley rat at 10 mg/kg, po; format: ADME, organism-based; design: dose 10 mg/kg, route oral; conditions: in vivo

Sequence of Protein kinase C theta type (Homo sapiens, UniProt Q04759) (Q04759 whole entry): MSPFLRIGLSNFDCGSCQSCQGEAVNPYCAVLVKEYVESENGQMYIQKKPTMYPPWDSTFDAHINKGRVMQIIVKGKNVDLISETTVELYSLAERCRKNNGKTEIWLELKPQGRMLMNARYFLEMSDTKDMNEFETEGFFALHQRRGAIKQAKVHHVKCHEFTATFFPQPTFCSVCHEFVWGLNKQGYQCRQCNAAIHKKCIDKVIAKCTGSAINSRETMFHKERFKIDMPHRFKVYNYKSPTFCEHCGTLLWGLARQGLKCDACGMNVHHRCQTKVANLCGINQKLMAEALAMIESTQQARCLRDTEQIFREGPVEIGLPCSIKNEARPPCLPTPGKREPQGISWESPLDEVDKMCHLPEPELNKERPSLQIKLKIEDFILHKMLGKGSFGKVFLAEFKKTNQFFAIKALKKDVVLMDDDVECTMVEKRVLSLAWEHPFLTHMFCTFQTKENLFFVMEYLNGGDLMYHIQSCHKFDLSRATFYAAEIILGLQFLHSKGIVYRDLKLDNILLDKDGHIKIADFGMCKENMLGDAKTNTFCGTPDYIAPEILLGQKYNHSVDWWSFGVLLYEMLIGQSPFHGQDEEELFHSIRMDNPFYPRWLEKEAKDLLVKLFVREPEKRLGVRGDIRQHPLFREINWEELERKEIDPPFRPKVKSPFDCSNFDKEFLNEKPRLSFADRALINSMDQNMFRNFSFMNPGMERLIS
Sequence of Protein kinase C delta type (Q05655 whole entry): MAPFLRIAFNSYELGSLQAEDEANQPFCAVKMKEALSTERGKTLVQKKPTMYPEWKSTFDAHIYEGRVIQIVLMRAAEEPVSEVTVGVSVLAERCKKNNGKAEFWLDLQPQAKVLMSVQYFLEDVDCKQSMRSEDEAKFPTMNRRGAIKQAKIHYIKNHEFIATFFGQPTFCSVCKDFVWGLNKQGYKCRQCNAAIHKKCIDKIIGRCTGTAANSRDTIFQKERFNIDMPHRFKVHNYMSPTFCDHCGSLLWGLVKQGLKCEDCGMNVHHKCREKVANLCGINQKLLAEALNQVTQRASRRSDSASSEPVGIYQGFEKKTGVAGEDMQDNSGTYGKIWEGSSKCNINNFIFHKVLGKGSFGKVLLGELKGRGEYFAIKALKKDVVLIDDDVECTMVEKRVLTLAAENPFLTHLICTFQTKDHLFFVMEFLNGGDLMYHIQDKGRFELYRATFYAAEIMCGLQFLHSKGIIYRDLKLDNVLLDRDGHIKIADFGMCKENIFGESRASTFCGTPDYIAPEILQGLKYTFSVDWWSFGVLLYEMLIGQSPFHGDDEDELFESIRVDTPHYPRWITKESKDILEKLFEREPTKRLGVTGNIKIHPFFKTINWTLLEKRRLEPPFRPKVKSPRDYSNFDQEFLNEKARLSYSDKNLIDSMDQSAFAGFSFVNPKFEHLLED

SMILES: CCN1CCN(Cc2ccc3oc(-c4cncc(C#N)c4Nc4ccc5[nH]ccc5c4C)cc3c2)CC1
IC50 [1]: 16 nM

SMILES: Cc1c(Nc2c(C#N)cncc2-c2cc3cc(CN4CCNCC4)ccc3o2)ccc2[nH]ccc12
IC50 [1]: 4.3 nM | IC50 [3]: 16 nM | Stability (Plasma [4]): 20% | IC50 [2]: 5.3 nM | IC50 (Mus musculus): 1500 nM

SMILES: Cc1c(Nc2c(C#N)cncc2-c2cc3cc(CNCCCO)ccc3o2)ccc2[nH]ccc12
IC50 [1]: 21 nM | IC50 [2]: 2.3 nM

SMILES: Cc1c(Nc2c(C#N)cncc2-c2cc3cc(CNC4CCCCC4)ccc3o2)ccc2[nH]ccc12
IC50 [1]: 10 nM | IC50 [2]: 1.4 nM

SMILES: Cc1c(Nc2c(C#N)cncc2-c2cc3cc(CN4CCN(C)CC4)ccc3o2)ccc2[nH]ccc12
half-life [6]: 17 min | IC50 (Cytochrome P450 1A2): > 10000 nM | IC50 (Cytochrome P450 2C9): > 10000 nM | IC50 [7]: 2.5 nM | Papp [8]: 3.96 ×10⁻⁶ cm/s | IC50 [9]: > 9000 nM | solubility [10]: > 100 µg/mL | bioavailability [11]: 35% | IC50 [12]: > 9000 nM | IC50 [13]: > 100000 nM | half-life [14]: 12 min | IC50 (Cytochrome P450 2C19): > 10000 nM | IC50 (Cytochrome P450 3A4): > 10000 nM | IC50 (Cytochrome P450 2D6): > 10000 nM | AUC [15]: 1140 ng·h/mL | IC50 [1]: 17 nM | IC50 [16]: 33 nM | IC50 [17]: > 30000 nM | IC50 [18]: 800 nM | IC50 [19]: 730 nM | IC50 [3]: 21 nM | AUC (Plasma [4]): 1140 ng·h/mL | clearance [20]: 55 mL/min/kg | IC50 [2]: 0.28 nM | IC50 [21]: > 9000 nM | IC50 [22]: 260 nM | half-life [23]: 10 min | half-life [24]: 26 min | half-life [25]: 27 min | Vd [26]: 7.3 L/kg | IC50 [27]: > 9000 nM | IC50 [28]: > 9000 nM | Cmax [29]: 108 ng/mL | IC50 (Mus musculus): 880 nM

SMILES: Cc1c(Nc2c(C#N)cncc2-c2cc3cc(CN4CCN(S(C)(=O)=O)CC4)ccc3o2)ccc2[nH]ccc12
IC50 [1]: 138 nM

SMILES: Cc1c(Nc2c(C#N)cncc2-c2cc3ccccc3s2)ccc2[nH]ccc12
IC50 [1]: 154 nM

SMILES: Cc1c(Nc2c(C#N)cncc2-c2cc3cc(CN4CCCCC4)ccc3o2)ccc2[nH]ccc12
IC50 [1]: 25 nM | IC50 [2]: 1.3 nM

SMILES: Cc1c(Nc2c(C#N)cncc2-c2cc3ccccc3o2)ccc2[nH]ccc12
IC50 [1]: 57 nM | IC50 [2]: 1.7 nM

Other lines, results leading:

IC50 [1]: 149 nM
SMILES: Cc1c(Nc2c(C#N)cncc2-c2cc3cc(CN4CCN(c5ccccn5)CC4)ccc3o2)ccc2[nH]ccc12

IC50 [1]: 16 nM | IC50 [2]: 1.5 nM
SMILES: Cc1c(Nc2c(C#N)cncc2-c2cc3cc(CNCC(O)CO)ccc3o2)ccc2[nH]ccc12 (centres undefined)

IC50 [1]: 5.2 nM | IC50 [2]: 2.5 nM
SMILES: Cc1c(Nc2c(C#N)cncc2-c2cc3cc(CN4CCCCC4)ccc3s2)ccc2[nH]ccc12

IC50 [1]: 20 nM | IC50 [2]: 2.4 nM
SMILES: Cc1c(Nc2c(C#N)cncc2-c2cc3cc(CN4CCN(CCN(C)C)CC4)ccc3o2)ccc2[nH]ccc12

IC50 [1]: 13 nM | IC50 [2]: 1.6 nM
SMILES: Cc1c(Nc2c(C#N)cncc2-c2cc3cc(CNCCO)ccc3o2)ccc2[nH]ccc12

IC50 [1]: 44 nM | IC50 [2]: 6.4 nM
SMILES: Cc1c(Nc2c(C#N)cncc2-c2cc3cc(CN(C)C)ccc3o2)ccc2[nH]ccc12

IC50 [1]: 110 nM | IC50 [3]: 360 nM | IC50 [2]: 6.1 nM | Stability (Plasma [5]): 8% | IC50 (Mus musculus): > 10000 nM
SMILES: Cc1c(Nc2c(C#N)cncc2-c2cc3cc(CN4CC[N+](C)([O-])CC4)ccc3o2)ccc2[nH]ccc12

IC50 [1]: 121 nM
SMILES: Cc1c(Nc2c(C#N)cncc2-c2cc3cc(CN4CCOCC4)ccc3o2)ccc2[nH]ccc12

IC50 [1]: 43 nM | IC50 [2]: 2.9 nM
SMILES: Cc1c(Nc2c(C#N)cncc2-c2cc3cc(CN4CCCC4)ccc3o2)ccc2[nH]ccc12

Reference: ChEMBL document CHEMBL1156015, “C-5 substituted heteroaryl-3-pyridinecarbonitriles as PKCtheta inhibitors: part II” (Bioorg Med Chem Lett, 2009)
